Here are results for 48 substances from patent US10004792B2, “Peptides and combination of peptides for use in immunotherapy against various cancers” (immatics biotechnologies GmbH, priority 2015, dated 2018).

For one test, the system named is CD8+ T cells. The test can be described thus: In vitro immunogenicity: T-cell priming with aAPCs loaded with peptide/MHC and anti-CD28, multimer staining. It is filed as cell-based, human. The note with it: for Wells positive [%]: in vitro immunogenicity of HLA class I peptides, peptide-specific multimer staining after aAPC priming of CD8+ T cells; for Wells (in vitro immunogenicity): healthy donor CD8+ T cells, three stimulation cycles, multimer readout. The text has this:
In order to obtain information regarding the immunogenicity of the TUMAPs of the present invention, the inventors performed investigations using an in vitro T-cell priming assay based on repeated stimulations of CD8+ T cells with artificial antigen presenting cells (aAPCs) loaded with peptide/MHC complexes and anti-CD28 antibody.
In order to perform in vitro stimulations by artificial antigen presenting cells loaded with peptide-MHC complex (pMHC) and anti-CD28 antibody, the inventors first isolated CD8+ T cells from fresh HLA-A*02 leukapheresis products via positive selection using CD8 microbeads (Miltenyi Biotec, Bergisch-Gladbach, Germany) of healthy donors obtained from the University clinics Mannheim, Germany, after informed consent.
PBMCs and isolated CD8+ lymphocytes were incubated in T-cell medium (TCM) until use consisting of RPMI-Glutamax (Invitrogen, Karlsruhe, Germany) supplemented with 10% heat inactivated human AB serum (PAN-Biotech, Aidenbach, Germany), 100 U/ml Penicillin/100 μg/ml Streptomycin (Cambrex, Cologne, Germany), 1 mM sodium pyruvate (CC Pro, Oberdorla, Germany), 20 µg/ml Gentamycin (Cambrex). 2.5 ng/ml IL7 (PromoCell, Heidelberg, Germany) and 10 U/ml IL-2 (Novartis Pharma, Nurnberg, Germany) were also added to the TCM at this step.
Generation of pMHC/anti-CD28 coated beads, T-cell stimulations and readout was performed in a highly defined in vitro system using four different pMHC molecules per stimulation condition and 8 different pMHC molecules per readout condition.
The purified co-stimulatory mouse IgG2a anti human CD28 Ab 9.3 (Jung et al., 1987) was chemically biotinylated using Sulfo-N-hydroxysuccinimidobiotin as recommended by the manufacturer (Perbio, Bonn, Germany). Beads used were 5.6 μm diameter streptavidin coated polystyrene particles (Bangs Laboratories, Illinois, USA).
pMHC used for positive and negative control stimulations were A*0201/MLA-001 (peptide […] (SEQ ID NO. 303) from modified Melan-A/MART-1) and A*0201/DDX5-001 ([…] from DDX5, SEQ ID NO. 304), respectively.
800.000 beads/200 μl were coated in 96-well plates in the presence of 4×12.5 ng different biotin-pMHC, washed and 600 ng biotin anti-CD28 were added subsequently in a volume of 200 μl. Stimulations were initiated in 96-well plates by co-incubating 1×10^6 CD8+ T cells with 2×10^5 washed coated beads in 200 μI TCM supplemented with 5 ng/ml IL-12 (PromoCell) for 3 days at 37° C. Half of the medium was then exchanged by fresh TCM supplemented with 80 U/ml IL-2 and incubating was continued for 4 days at 37° C. This stimulation cycle was performed for a total of three times. For the pMHC multimer readout using 8 different pMHC molecules per condition, a two-dimensional combinatorial coding approach was used as previously described (Andersen et al., 2012) with minor modifications encompassing coupling to 5 different fluorochromes. Finally, multimeric analyses were performed by staining the cells with Live/dead near IR dye (Invitrogen, Karlsruhe, Germany), CD8-FITC antibody clone SK1 (BD, Heidelberg, Germany) and fluorescent pMHC multimers. For analysis, a BD LSRII SORP cytometer equipped with appropriate lasers and filters was used. Peptide specific cells were calculated as percentage of total CD8+ cells. Evaluation of multimeric analysis was done using the FlowJo software (Tree Star, Oreg., USA). In vitro priming of specific multimer+CD8+ lymphocytes was detected by comparing to negative control stimulations.

A further test deals with HLA-A*24. In words: MHC binding assay (UV-ligand exchange, beta2m ELISA), HLA-A*24. The arrangement: species or system human. The following applies: peptide exchange yield, binding to HLA-A*24, UV-ligand exchange, β2m ELISA. The text has this:
Candidate peptides for T cell based therapies according to the present invention were further tested for their MHC binding capacity (affinity). The individual peptide-MHC complexes were produced by UV-ligand exchange, where a UV-sensitive peptide is cleaved upon UV-irradiation, and exchanged with the peptide of interest as analyzed. Only peptide candidates that can effectively bind and stabilize the peptide-receptive MHC molecules prevent dissociation of the MHC complexes. To determine the yield of the exchange reaction, an ELISA was performed based on the detection of the light chain (β2m) of stabilized MHC complexes. The assay was performed as generally described in Rodenko et al. (Rodenko et al., 2006).
96 well MAXISorp plates (NUNC) were coated over night with 2 ug/ml streptavidin in PBS at room temperature, washed 4× and blocked for 1 h at 37° C. in 2% BSA containing blocking buffer. Refolded HLA-A*02:01/MLA-001 monomers served as standards, covering the range of 15-500 ng/ml. Peptide-MHC monomers of the UV-exchange reaction were diluted 100 fold in blocking buffer. Samples were incubated for 1h at 37° C., washed four times, incubated with 2 ug/ml HRP conjugated anti-62m for 1 h at 37° C., washed again and detected with TMB solution that is stopped with […]. Absorption was measured at 450 nm. Candidate peptides that show a high exchange yield (preferably higher than 50%, most preferred higher than 75%) are generally preferred for a generation and production of antibodies or fragments thereof, and/or T cell receptors or fragments thereof, as they show sufficient avidity to the MHC molecules and prevent dissociation of the MHC complexes.
In general terms: In an ELISA, binding on a coated surface is turned into a signal by an enzyme label.

For “218 (YYKSTSSAF; listed as Homo sapiens) [compound 218]”, the “Wells positive [%]” value in the test with CD8+ T cells was “+ (<20% = +)”. Take “207 (AYVVFVSTL; listed as Homo sapiens) [compound 207]”: in the test on CD8+ T cells, the “Wells positive [%]” value is “+ (<20% = +)”. As for “290 (KIVDFSYSV; listed as Homo sapiens) [compound 290]”, the “Wells (in vitro immunogenicity)” value in the test with CD8+ T cells was “++ (20%-49% = ++)”. On the same count and under the same terms, as for “292 (GMMTAILGV; listed as Homo sapiens) [compound 292]”, the entry is “+ (<20% = +)”. For “90 (FLQDLEQRL; listed as Homo sapiens) [compound 90]”, the “Wells positive [%]” value in the test on CD8+ T cells is “+ (<20% = +)”. The same measure, in the same setting: under “230 (KLQNIMMLL; listed as Homo sapiens) [compound 230]” stands “++++ (>=70% = ++++)”. On to “291 (KLDETGNSL; listed as Homo sapiens) [compound 291]”, for which the “Wells (in vitro immunogenicity)” value in the test with CD8+ T cells is on record as “+ (<20% = +)”. In the case of “181 (LYLDIINLF; listed as Homo sapiens) [compound 181]”, the Peptide exchange result with HLA-A*24 is “++++ (>=75% = ++++)”. In the case of “23 (SLFSDEFKV; listed as Homo sapiens) [compound 23]”, in the test on CD8+ T cells, the “Wells positive [%]” value is recorded as “++++ (>=70% = ++++)”. As to “280 (RYPDNLKHLYL; listed as Homo sapiens) [compound 280]”, the Peptide exchange result with HLA-A*24 is “++++ (>=75% = ++++)”. Still for that read-out and setting: as for “216 (QYSSVFKSL; listed as Homo sapiens) [compound 216]”, the entry is “++++ (>=75% = ++++)”. For “298 (RYLEGTSCI; listed as Homo sapiens) [compound 298]”, the “Wells (in vitro immunogenicity)” value with CD8+ T cells is listed as “+ (<20% = +)”. With “184 (VFQNFPLLF; listed as Homo sapiens) [compound 184]”, the Peptide exchange entry with HLA-A*24 is “++++ (>=75% = ++++)”. Turning to “274 (AYLHSHALI; listed as Homo sapiens) [compound 274]”, in the test on HLA-A*24, the Peptide exchange result is “++++ (>=75% = ++++)”.

With “295 (YYPGVILGF; listed as Homo sapiens) [compound 295]”, the “Wells (in vitro immunogenicity)” value in the test on CD8+ T cells is given as “++ (20%-49% = ++)”.

In the case of “228 (KYTSWYVAL; listed as Homo sapiens) [compound 228]”, in the test with HLA-A*24, the Peptide exchange result is “++++ (>=75% = ++++)”. For “179 (MYDSYWRQF; listed as Homo sapiens) [compound 179]”, the Peptide exchange result in the test on HLA-A*24 is reported as “++++ (>=75% = ++++)”. Same read-out and setting: as for “282 (KFVDSTFYL; listed as Homo sapiens) [compound 282]”, the entry is “++++ (>=75% = ++++)”. Turning to “5 (GIVAHIQEV; listed as Homo sapiens) [compound 5]”, the “Wells positive [%]” value in the test on CD8+ T cells is “+ (<20% = +)”.

For the substance “160 (VYTLDIPVL; listed as Homo sapiens) [compound 160]”, the Peptide exchange entry with HLA-A*24 was “++++ (>=75% = ++++)”. In the case of “301 (AYKPGALTF; listed as Homo sapiens) [compound 301]”, the “Wells (in vitro immunogenicity)” value in the test with CD8+ T cells is “+ (<20% = +)”. Consider “177 (VYPWLGALL; listed as Homo sapiens) [compound 177]”, for which the Peptide exchange entry with HLA-A*24 is listed as “++++ (>=75% = ++++)”. Regarding “18 (ILLDLTDNRL; listed as Homo sapiens) [compound 18]”, the “Wells positive [%]” value with CD8+ T cells is listed as “+ (<20% = +)”. On the same count and under the same terms, under “35 (FLLPFSTVYL; listed as Homo sapiens) [compound 35]” stands “+ (<20% = +)”. “192 (SYALLTYMI; listed as Homo sapiens) [compound 192]”: the Peptide exchange result in the test with HLA-A*24 was “++++ (>=75% = ++++)”. Still for that read-out and setting: under “278 (RYISDQLFTNF; listed as Homo sapiens) [compound 278]” stands “++++ (>=75% = ++++)”. For “211 (YYLEVGKTLI; listed as Homo sapiens) [compound 211]”, the Peptide exchange result in the test on HLA-A*24 is reported as “++++ (>=75% = ++++)”.

Regarding “210 (IYTMIYRNL; listed as Homo sapiens) [compound 210]”, the Peptide exchange result in the test on HLA-A*24 is “++++ (>=75% = ++++)”. As to “186 (IFPQFLYQF; listed as Homo sapiens) [compound 186]”, the Peptide exchange result in the test on HLA-A*24 was “++++ (>=75% = ++++)”. Consider “277 (VYQGHTALL; listed as Homo sapiens) [compound 277]”, for which the Peptide exchange result with HLA-A*24 was “++++ (>=75% = ++++)”.

Consider “272 (QYLQDAYSF; listed as Homo sapiens) [compound 272]”, for which, in the test on HLA-A*24, the Peptide exchange entry was “++++ (>=75% = ++++)”.

For the substance “289 (KYPVEWAKF; listed as Homo sapiens) [compound 289]”, the Peptide exchange result with HLA-A*24 was “++++ (>=75% = ++++)”. Same read-out and setting: under “173 (IYSWILDHF; listed as Homo sapiens) [compound 173]” stands “++++ (>=75% = ++++)”. Same read-out and setting: under “227 (IFLDYEAGTLSF; listed as Homo sapiens) [compound 227]” stands “++++ (>=75% = ++++)”. The same measure, in the same setting: under “168 (KYQDILETI; listed as Homo sapiens) [compound 168]” stands “++++ (>=75% = ++++)”. In the case of “267 (KYMVYPQTF; listed as Homo sapiens) [compound 267]”, the Peptide exchange result with HLA-A*24 is listed as “++++ (>=75% = ++++)”. The same measure, in the same setting: as for “217 (FFPPTRQMGLLF; listed as Homo sapiens) [compound 217]”, the entry is “++++ (>=75% = ++++)”. Take “175 (YYEVHKELF; listed as Homo sapiens) [compound 175]”: the Peptide exchange entry in the test with HLA-A*24 is reported as “++++ (>=75% = ++++)”. In the case of “194 (EFGSLHLEFL; listed as Homo sapiens) [compound 194]”, the Peptide exchange result in the test on HLA-A*24 is listed as “+ (<20% = +)”.

For “161 (IYLVSIPEL; listed as Homo sapiens) [compound 161]”, the Peptide exchange result with HLA-A*24 was “++++ (>=75% = ++++)”. Turning to “193 (RFHPTPLLL; listed as Homo sapiens) [compound 193]”, the Peptide exchange result with HLA-A*24 was “++++ (>=75% = ++++)”. Same read-out and setting: under “172 (TYTTVPRVAF; listed as Homo sapiens) [compound 172]” stands “++++ (>=75% = ++++)”. The same measure, in the same setting: as for “195 (TYSVSFPMF; listed as Homo sapiens) [compound 195]”, the entry is “++++ (>=75% = ++++)”; as for “166 (YYVESGKLF; listed as Homo sapiens) [compound 166]”, “++++ (>=75% = ++++)”; as for “271 (LYHDIFSRL; listed as Homo sapiens) [compound 271]”, “++++ (>=75% = ++++)”. Turning to “202 (VYWDSAGAAHF; listed as Homo sapiens) [compound 202]”, the Peptide exchange result in the test on HLA-A*24 was “++++ (>=75% = ++++)”. “276 (VYGFQWRHF; listed as Homo sapiens) [compound 276]”: the Peptide exchange entry in the test with HLA-A*24 is given as “++++ (>=75% = ++++)”. On the same count and under the same terms, as for “187 (TYLRDQHFL; listed as Homo sapiens) [compound 187]”, the entry is “++++ (>=75% = ++++)”.
